{"source": "ChEMBL document CHEMBL5150019", "about": "“Targeting Extracellular Signal-Regulated Protein Kinase 1/2 (ERK1/2) in Cancer: An Update on Pharmacological Small-Molecule Inhibitors” (J Med Chem, 2022)", "key": {"MCF7": {"system": "MCF7", "test": "Antiproliferative activity in human MCF7 cells assessed as cell growth inhibition measured after 24 hrs by MTT assay", "assay_type": "functional, cell-based", "conditions": "MCF7, 24 h"}, "[1]": {"molecular_target": "T1, Mitogen-activated protein kinase 3 (Homo sapiens, UniProt P27361)", "T1 sequence (P27361 whole entry)": "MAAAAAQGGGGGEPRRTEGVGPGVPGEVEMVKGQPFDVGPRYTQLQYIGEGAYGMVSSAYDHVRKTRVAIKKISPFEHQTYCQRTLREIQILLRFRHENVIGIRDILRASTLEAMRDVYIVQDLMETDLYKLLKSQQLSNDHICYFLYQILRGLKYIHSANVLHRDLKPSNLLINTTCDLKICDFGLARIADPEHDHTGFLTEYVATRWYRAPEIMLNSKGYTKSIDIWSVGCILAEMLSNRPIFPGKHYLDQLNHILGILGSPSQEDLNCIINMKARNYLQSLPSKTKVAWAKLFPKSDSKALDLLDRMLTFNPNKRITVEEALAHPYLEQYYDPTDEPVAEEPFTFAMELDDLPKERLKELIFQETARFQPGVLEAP", "test": "Inhibition of ERK1 (unknown origin)"}, "[2]": {"molecular_target": "T2, Mitogen-activated protein kinase 1 (Homo sapiens, UniProt P28482)", "T2 sequence (P28482 whole entry)": "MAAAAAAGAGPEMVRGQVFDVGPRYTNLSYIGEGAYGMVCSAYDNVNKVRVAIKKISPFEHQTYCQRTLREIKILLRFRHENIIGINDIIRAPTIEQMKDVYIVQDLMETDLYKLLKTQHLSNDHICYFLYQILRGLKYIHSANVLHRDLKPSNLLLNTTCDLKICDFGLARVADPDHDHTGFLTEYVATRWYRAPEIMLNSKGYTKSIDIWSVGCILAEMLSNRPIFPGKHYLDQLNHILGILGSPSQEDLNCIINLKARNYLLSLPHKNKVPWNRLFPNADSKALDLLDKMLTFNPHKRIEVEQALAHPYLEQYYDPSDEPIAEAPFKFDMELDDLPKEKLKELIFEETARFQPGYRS", "test": "Inhibition of ERK2 (unknown origin)"}, "[3]": {"test": "Antiproliferative activity in mouse MB49 cells assessed as cell growth inhibition", "assay_type": "functional, cell-based"}, "UMUC3": {"system": "UMUC3", "test": "Antiproliferative activity in human UMUC3 cells assessed as cell growth inhibition", "assay_type": "functional, cell-based"}, "[4]": {"molecular_target": "T1, Mitogen-activated protein kinase 3", "test": "Binding affinity to ERK1 (unknown origin)"}, "[5]": {"molecular_target": "T2, Mitogen-activated protein kinase 1", "test": "Binding affinity to ERK2 (unknown origin)"}, "[6]": {"molecular_target": "T1, Mitogen-activated protein kinase 3", "test": "Binding affinity to ERK1 (unknown origin) measured after 20 mins in presence of [gamma33P]ATP by scintillation counter analysis"}, "[7]": {"molecular_target": "Mitogen-activated protein kinase 1 (Rattus norvegicus, UniProt P63086)", "sequence (P63086 whole entry)": "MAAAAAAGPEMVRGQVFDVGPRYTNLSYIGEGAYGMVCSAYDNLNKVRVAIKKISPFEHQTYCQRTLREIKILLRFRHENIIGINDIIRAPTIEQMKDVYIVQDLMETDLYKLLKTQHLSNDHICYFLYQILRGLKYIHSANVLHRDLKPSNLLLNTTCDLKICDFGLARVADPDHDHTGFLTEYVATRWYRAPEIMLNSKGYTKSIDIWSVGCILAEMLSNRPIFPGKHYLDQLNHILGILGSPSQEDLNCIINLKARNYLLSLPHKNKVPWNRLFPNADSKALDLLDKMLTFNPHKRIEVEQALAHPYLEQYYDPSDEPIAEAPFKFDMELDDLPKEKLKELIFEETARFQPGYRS", "test": "Binding affinity to rat full-length ERK2 using FQRKTLQRRNLKGLNLNL-XXX-TGPLSPGPF peptide as substrate in presence of [gamma33P]ATP by scintillation counter analysis"}, "[8]": {"test": "Antitumor activity against patient-derived Pancreatic cancer cell xenografted in NMRI nu/nu mouse PAXF-2059 model assessed as cell growth inhibition", "assay_type": "functional, cell-based", "conditions": "Homo sapiens"}, "Lung cancer cell line": {"system": "Lung cancer cell line", "test": "Antitumor activity against patient-derived Lung cancer cell line xenografted in NMRI nu/nu mouse LXFA-983 model assessed as cell growth inhibition", "assay_type": "functional, cell-based", "conditions": "Homo sapiens"}, "[9]": {"test": "Antitumor activity against patient-derived Colorectal cancer cell xenografted in NMRI nu/nu mouse CXF-243 model assessed as cell growth inhibition", "assay_type": "functional, cell-based", "conditions": "Homo sapiens"}}, "data": [{"smiles": "Clc1cc(Cl)cc(C(Cn2ccnc2)OCc2nc3ccccc3s2)c1", "note": "(stereo unspecified)", "values": [{"measurement": "IC50", "setting": "MCF7", "result": 5000, "unit": "nM"}]}, {"smiles": "O=C1Nc2cc3[nH]nc(-c4ccncc4)c3cc2CN1Cc1ccccc1", "note": "[KO-947]", "values": [{"measurement": "IC50", "setting": "[1]", "result": 10, "unit": "nM"}, {"measurement": "IC50", "setting": "[2]", "result": 10, "unit": "nM"}]}, {"smiles": "N=C(N)NC(=N)NCCc1ccccc1", "note": "[PHENFORMIN]", "values": [{"measurement": "IC50", "setting": "[3]", "result": 570000, "unit": "nM"}, {"measurement": "IC50", "setting": "UMUC3", "result": 250000, "unit": "nM"}]}, {"smiles": "Cc1cnc(NC2CCOCC2)nc1-n1cnc(C(=O)N[C@H](CN)c2cc(F)cc(Cl)c2)c1", "note": "[ASN007]", "values": [{"measurement": "IC50", "setting": "[1]", "result": 2, "unit": "nM"}, {"measurement": "IC50", "setting": "[2]", "result": 2, "unit": "nM"}]}, {"smiles": "Cn1nccc1Nc1nccc(-c2cc3c(s2)C(C)(C)N(CCN2CCOCC2)C3=O)n1", "note": "[TEMUTERKIB]", "values": [{"measurement": "Ki", "setting": "[4]", "result": 0.65, "unit": "nM"}, {"measurement": "Ki", "setting": "[5]", "result": 0.064, "unit": "nM"}, {"measurement": "IC50", "setting": "[1]", "result": 5, "unit": "nM"}, {"measurement": "IC50", "setting": "[2]", "result": 5, "unit": "nM"}]}, {"smiles": "CC(C)Nc1cc(-c2c[nH]c(C(=O)N[C@H](CO)c3cccc(Cl)c3)c2)c(Cl)cn1", "note": "[ULIXERTINIB]", "values": [{"measurement": "Ki", "setting": "[6]", "result": "< 0.3", "unit": "nM"}]}, {"smiles": "N=C(N)NCCC[C@H]1CNC(=N)N1CCN(CCN1C[C@H](CCCNC(=N)N)N(CCCC2CCCCC2)C1=N)CCN1C[C@H](CCCNC(=N)N)N(CCc2cccc(Br)c2)C1=N", "values": [{"measurement": "Kd", "setting": "[5]", "result": 380, "unit": "nM"}, {"measurement": "IC50", "setting": "[2]", "result": 9900, "unit": "nM"}]}, {"smiles": "O=[N+]([O-])c1cnc(Sc2nnc(O)n2-c2ccc3c(c2)OCCO3)s1", "values": [{"measurement": "Ki", "setting": "[7]", "result": 2300, "unit": "nM"}]}, {"smiles": "COc1ccc2[nH]cc(/C=C3\\C(=O)Nc4ccc(NC(=O)CCN5CCCCC5)cc43)c2c1", "values": [{"measurement": "IC50", "setting": "[2]", "result": 500, "unit": "nM"}]}, {"smiles": "C=CC(=O)Nc1cc(C)ccc1Nc1nc(Nc2cc(OC)ncc2C)ncc1C(F)(F)F", "values": [{"measurement": "IC50", "setting": "[8]", "result": 621, "unit": "nM"}, {"measurement": "IC50", "setting": "Lung cancer cell line", "result": 800, "unit": "nM"}, {"measurement": "IC50", "setting": "[1]", "result": 10, "unit": "nM"}, {"measurement": "IC50", "setting": "[2]", "result": 10, "unit": "nM"}, {"measurement": "IC50", "setting": "[9]", "result": 586, "unit": "nM"}]}]}
